Measured values from patent publication US9127003B2, “2-(azaindol-2-yl)benzimidazoles as PAD4 inhibitors” (Glaxo Group Limited, priority 2012, dated 2015).
Several values for one entry are separate records, joined by “and”; a condition that tells them apart may be missing. Equal entries are not always repeated. Structures can show the parent of a compound that is named as a salt.

Key:
[1] = target: T1, Recombinant human PAD2 (residues 1-665) (Homo sapiens, UniProt Q9Y2J8); test: PAD2 enzyme assay (NH3 release, BAEE substrate, fluorescence); format: biochemical; details: PAD2 enzyme assay above or similar assays; read-out: mean pIC50 (converted)
T1 construct: Recombinant human PAD2 (residues 1-665); 6His-FLAG (N); made in house; host or cells: baculovirus-infected Sf9 insect cells
T1 sequence (Q9Y2J8 whole entry, the tested form may be a part): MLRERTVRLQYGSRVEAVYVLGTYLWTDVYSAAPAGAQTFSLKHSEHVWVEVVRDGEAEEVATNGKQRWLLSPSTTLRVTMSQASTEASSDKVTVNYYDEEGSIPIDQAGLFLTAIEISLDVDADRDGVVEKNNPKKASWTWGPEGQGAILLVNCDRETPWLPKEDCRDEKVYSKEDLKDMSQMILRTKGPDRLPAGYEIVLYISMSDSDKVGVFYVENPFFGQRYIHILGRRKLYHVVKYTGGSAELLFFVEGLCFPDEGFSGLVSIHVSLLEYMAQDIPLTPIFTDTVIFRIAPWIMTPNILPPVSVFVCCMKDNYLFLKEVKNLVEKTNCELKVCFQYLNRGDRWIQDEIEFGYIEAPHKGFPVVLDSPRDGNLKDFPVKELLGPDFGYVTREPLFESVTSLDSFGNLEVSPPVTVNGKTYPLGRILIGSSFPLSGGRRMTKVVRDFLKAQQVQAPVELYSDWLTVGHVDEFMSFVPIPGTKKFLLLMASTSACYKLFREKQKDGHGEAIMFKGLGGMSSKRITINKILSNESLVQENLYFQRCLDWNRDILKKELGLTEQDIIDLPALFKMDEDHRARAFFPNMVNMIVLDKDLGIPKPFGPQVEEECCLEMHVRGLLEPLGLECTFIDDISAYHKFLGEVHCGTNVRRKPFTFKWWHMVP
Protocol: Recombinant human PAD2 (residues 1-665) was expressed in baculovirus-infected Sf9 insect cells as an N-terminal 6His-FLAG-tagged fusion protein. Activity of the final product was determined using a FLINT NH3 release assay.
8 μl of PAD2 enzyme diluted to an assay concentration of 30 nM in assay buffer (100 mM HEPES, 50 mM NaCl, 2 mM DTT, 7.5% glycerol and 1.5 mM CHAPS pH 8), and added to wells containing 0.1 μl of various concentrations of compound or DMSO vehicle (0.8% final) in a Greiner high volume 384 well black plate. Following 30 mins pre-incubation at room temperature, the reaction was initiated by the addition of 4 μl of substrate buffer containing 180 uM N-a-benzoyl-L-arginine ethyl ester (BAEE), 100 mM HEPES, 50 mM NaCl, 240 uM CaCl2 (2H2O) and 2 mM DTT, pH 8.0. The reaction was stopped after 90 mins with the addition of 38 μl stop/detection buffer containing 50 mM EDTA, 2.6 mM phthalaldehyde and 2.6 mM DTT. Assay incubated at room temperature for 90 mins before measuring fluorescent signal (λex 405/λem 460) on an Envision plate reader (Perkin Elmer Life Sciences, Waltham, Mass., USA)

[2] = target: T2, Recombinant human PAD4 (residues 1-663) (Homo sapiens, UniProt Q9UM07); test: PAD4 enzyme assay (NH3 release, BAEE substrate, fluorescence); format: biochemical; details: PAD4 enzyme assay above (Conditions A or B) or similar assays; read-out: mean pIC50 (converted)
T2 construct: Recombinant human PAD4 (residues 1-663); GST (N, cleaved yes); made in house; host or cells: E. coli
T2 sequence (Q9UM07 whole entry, the tested form may be a part): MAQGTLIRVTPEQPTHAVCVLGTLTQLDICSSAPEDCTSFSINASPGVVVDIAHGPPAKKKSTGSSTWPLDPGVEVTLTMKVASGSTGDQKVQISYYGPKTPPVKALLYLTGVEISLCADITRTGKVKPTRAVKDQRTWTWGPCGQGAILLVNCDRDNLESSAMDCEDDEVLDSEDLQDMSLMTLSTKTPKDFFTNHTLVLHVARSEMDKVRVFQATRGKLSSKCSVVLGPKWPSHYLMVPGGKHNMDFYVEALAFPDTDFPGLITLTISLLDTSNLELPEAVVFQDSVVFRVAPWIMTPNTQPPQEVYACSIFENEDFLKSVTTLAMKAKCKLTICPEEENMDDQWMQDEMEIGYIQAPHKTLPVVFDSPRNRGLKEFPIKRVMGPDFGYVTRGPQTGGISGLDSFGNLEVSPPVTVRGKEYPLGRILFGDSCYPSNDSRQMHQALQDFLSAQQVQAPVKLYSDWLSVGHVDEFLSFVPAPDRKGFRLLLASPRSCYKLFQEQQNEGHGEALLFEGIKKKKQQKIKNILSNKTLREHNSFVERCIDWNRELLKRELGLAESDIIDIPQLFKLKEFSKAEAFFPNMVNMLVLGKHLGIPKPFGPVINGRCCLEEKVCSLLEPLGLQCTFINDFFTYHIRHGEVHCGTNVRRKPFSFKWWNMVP
Protocol: Recombinant human PAD4 (residues 1-663) was expressed in E. coli as an N-terminal GST-tagged fusion protein. During purification of the protein, the GST tag was removed by cleavage with PreScission Protease (GE Healthcare). Activity of the final product was determined using a FLINT NH3 release assay.
(§1) 8 μl of PAD4 enzyme diluted to an assay concentration of 75 nm in assay buffer (a).: (100 mM HEPES, 50 mM NaCl, 2 mM DTT and 0.6 mg/mIBSA pH 8), or in assay buffer (b).: (100 mM HEPES, 50 mM NaCl, 2 mM DTT, 7.5% glycerol and 1.5 mM CHAPS pH 8), and added to wells containing 0.1 μl of various concentrations of compound or DMSO vehicle (0.8% final) in a Greiner high volume 384 well black plate. Following 30 mins pre-incubation at room temperature, the reaction was initiated by the addition of 4 μl of substrate buffer containing 3 mM N-a-benzoyl-L-arginine ethyl ester (BAEE), 100 mM HEPES, 50 mM NaCl, 600 uM CaCl2 (2H2O) and 2 mM DTT, pH 8.0. The reaction was stopped after 100 mins with the addition of 38 μl stop/detection buffer containing 50 mM EDTA, 2.6 mM phthalaldehyde and 2.6 mM DTT. Assay incubated at room temperature for 90 mins before measuring fluorescent signal (λex 413/λem 476) on an Envision plate reader (Perkin Elmer Life Sciences, Waltham, Mass., USA)
as §1, with “of 30 nM” for “of 75 nm”, “buffer” for “buffer (a).:”, “mg/mIBSA” for “mg/mIBSA pH 8), or in assay buffer (b).: (100 mM HEPES, 50 mM NaCl, 2 mM DTT, 7.5% glycerol and 1.5 mM CHAPS”, “after 60” for “after 100”, “(λex 405/λem 460)” for “(λex 413/λem 476)”

Row | Structure (SMILES) | IC50 [1] | IC50 [2]
1 | COc1cc(C(=O)N2CCC[C@@H](N)C2)cc2nc(-c3cc4cccnc4n3CC(F)(F)F)n(C)c12 [Example 11B, (R)-(3-Aminopiperidin-1-yl)(7-methoxy-1-methyl-2-(1-(2,2,2-trifluoroethyl)-1H-pyrrolo[2,3-b]pyridin-2-yl)-1H-benzo[d]imidazol-5-yl)methanone, hydrochloride] | 63.1 to 79.4 µM and > 79.4 µM | 0.0316 to 10 µM and 0.126 µM
2 | Cn1c(-c2cc3cccnc3n2CC2CC2)nc2cc(C(=O)N3CC[C@@H](O)[C@@H](N)C3)ccc21 [Example 13, ((3S,4R)-3-Amino-4-hydroxypiperidin-1-yl)(2-(1-(cyclopropylmethyl)-1H-pyrrolo[2,3-b]pyridin-2-yl)-1-methyl-1H-benzo[d]imidazol-5-yl)methanone, hydrochloride] | 63.1 to 79.4 µM | 0.0316 to 10 µM
3 | COc1cc(C(=O)N2CC[C@@H](O)[C@@H](N)C2)cc2nc(-c3cc4cccnc4n3CC3CC3)n(C)c12 [Example 14, ((3S,4R)-3-Amino-4-hydroxypiperidin-1-yl)(2-(1-(cyclopropylmethyl)-1H-pyrrolo[2,3-b]pyridin-2-yl)-7-methoxy-1-methyl-1H-benzo[d]imidazol-5-yl)methanone, hydrochloride] | > 79.4 µM | 0.0316 to 10 µM and 0.0794 µM
4 | COc1cc(C(=O)N2CCC[C@@H](N)C2)cc2nc(-c3cc4cccnc4n3CC(C)(C)C)n(C)c12 [Example 16, (R)-(3-Aminopiperidin-1-yl)(7-methoxy-1-methyl-2-(1-neopentyl-1H-pyrrolo[2,3-b]pyridin-2-yl)-1H-benzo[d]imidazol-5-yl)methanone] | 63.1 to 79.4 µM | 0.0316 to 10 µM
5 | CCn1c(-c2nc3cc(C(=O)N4CCC[C@H](N)C4)cc(OC)c3n2C)cc2cccnc21 [Example 19, (S)-(3-Aminopiperidin-1-yl)(2-(1-ethyl-1H-pyrrolo[2,3-b]pyridin-2-yl)-7-methoxy-1-methyl-1H-benzo[d]imidazol-5-yl)methanone, hydrochloride] | 63.1 to 79.4 µM | 0.0316 to 10 µM
6 | COc1cc(C(=O)N2CCC[C@@H](N)C2)cc2nc(-c3cc4cccnc4n3CC(C)C)n(C)c12 [Example 22, (R)-(3-Aminopiperidin-1-yl)(2-(1-isobutyl-1H-pyrrolo[2,3-b]pyridin-2-yl)-7-methoxy-1-methyl-1H-benzo[d]imidazol-5-yl)methanone, hydrochloride] | 63.1 to 79.4 µM | 0.0316 to 10 µM
